± gives the uncertainty stated by the source.
Assay: xn = mol fraction of the nth substance listed

CC[NH+](C)CC.O=S(=O)([O-])C(F)(F)F + O
101 kPa
Details | viscosity [mPa·s]
293.15 K, x2 = 0.759 | 7.65 ± 0.53
313.15 K, x2 = 0.037 | 25.8 ± 1.8
333.15 K, x2 = 0.434 | 7.33 ± 0.51
333.15 K, x2 = 0.759 | 2.81 ± 0.2
333.15 K, x2 = 0.844 | 1.94 ± 0.13
353.15 K, x2 = 0.434 | 4.89 ± 0.34
353.15 K, x2 = 0.759 | 2.01 ± 0.14

O=C1CCCCCN1 + CCCC[N+](CCCC)(CCCC)CCCC.[Cl-] + O
electrical conductivity [S/m], 101 kPa
Details | x1 = 0.0018, x2 = 0.0018 | x1 = 0.0197, x2 = 0.0197 | x1 = 0.0481, x2 = 0.0481 | x1 = 0.0862, x2 = 0.0862 | x1 = 0.146, x2 = 0.146
293.15 K | – | 0.798 ± 0.008 | – | – | 0.593 ± 0.006
295.65 K | – | 0.788 ± 0.0079 | – | – | 0.6211 ± 0.0062
298.15 K | – | 0.778 ± 0.0078 | 0.799 ± 0.008 | 0.775 ± 0.0078 | 0.639 ± 0.0064
300.65 K | – | 0.769 ± 0.0077 | 0.8 ± 0.008 | 0.7743 ± 0.0077 | 0.6505 ± 0.0065
303.15 K | – | 0.768 ± 0.0077 | 0.795 ± 0.008 | 0.778 ± 0.0078 | 0.659 ± 0.0066
305.65 K | – | 0.767 ± 0.0077 | 0.788 ± 0.0079 | 0.775 ± 0.0078 | 0.667 ± 0.0067
308.15 K | 0.219 ± 0.0065 | 0.767 ± 0.0098 | 0.7825 ± 0.0078 | 0.7733 ± 0.0077 | 0.677 ± 0.0068
310.65 K | 0.219 ± 0.0065 | 0.763 ± 0.0098 | 0.779 ± 0.0078 | 0.768 ± 0.0077 | 0.686 ± 0.0069
313.15 K | 0.221 ± 0.0064 | 0.758 ± 0.0097 | 0.776 ± 0.0078 | 0.7623 ± 0.0076 | 0.6923 ± 0.0069
315.65 K | 0.222 ± 0.0063 | 0.753 ± 0.0096 | 0.77 ± 0.0077 | 0.757 ± 0.0076 | 0.695 ± 0.007
318.15 K | 0.222 ± 0.0062 | 0.744 ± 0.0095 | 0.7621 ± 0.0076 | 0.7513 ± 0.0075 | 0.699 ± 0.007
320.65 K | 0.223 ± 0.0061 | 0.735 ± 0.0093 | 0.7545 ± 0.0075 | 0.7434 ± 0.0074 | 0.699 ± 0.007
323.15 K | 0.223 ± 0.006 | 0.725 ± 0.0092 | 0.746 ± 0.0075 | 0.736 ± 0.0074 | 0.698 ± 0.007
325.65 K | 0.224 ± 0.0059 | 0.716 ± 0.009 | 0.737 ± 0.0074 | 0.727 ± 0.0073 | 0.697 ± 0.007
328.15 K | 0.224 ± 0.0058 | 0.704 ± 0.0089 | – | 0.719 ± 0.0072 | 0.6938 ± 0.0069
330.65 K | 0.224 ± 0.0057 | 0.693 ± 0.0087 | – | 0.7105 ± 0.0071 | 0.687 ± 0.0069
333.15 K | 0.225 ± 0.0056 | 0.681 ± 0.0085 | – | 0.7023 ± 0.007 | 0.6811 ± 0.0068

O + C[C@H](N)C(=O)O + CCCCCCCCCCCCCCCC[n+]1ccccc1.[Cl-]
Details | electrical conductivity [S/m]
308.15 K, 101 kPa, x2 = 0, x3 = 0 | 6.7e-05 ± 1e-06

CCCC[n+]1ccn(C)c1.O=C([O-])C(F)(F)F + OCCOCCOCCOCCO
298.15 K, 101 kPa
Details | viscosity [mPa·s]
x2 = 0 | 71.1 ± 1.9
x2 = 0.5 | 71 ± 1.9

CCCC[n+]1ccccc1.[Br-] + CC[n+]1ccccc1.[Br-]
viscosity [mPa·s], 101 kPa
Details | x2 = 0.085 | x2 = 0.197 | x2 = 0.269 | x2 = 0.352 | x2 = 0.52 | x2 = 0.621 | x2 = 0.689 | x2 = 0.811 | x2 = 0.903
353.1 K | – | – | – | – | 93.7 ± 6.9 | – | – | – | –
358.1 K | – | – | – | – | 77.4 ± 7.2 | – | – | – | –
363.1 K | – | – | – | 86.2 ± 6.7 | 64.2 ± 4.9 | 53.8 ± 3.5 | – | – | –
368.1 K | – | – | 80.4 ± 6.3 | 70.3 ± 5.9 | 53.7 ± 4 | 45.6 ± 3.2 | – | – | –
373.1 K | – | – | 65.3 ± 5.6 | 57.8 ± 4.7 | 45.1 ± 3.2 | 38.8 ± 2.6 | – | – | –
378.1 K | – | – | 53.5 ± 4.4 | 47.8 ± 3.7 | 38.1 ± 2.7 | 33.2 ± 2.2 | 30.3 ± 1.7 | – | –
383.1 K | – | – | 44.2 ± 3.5 | 39.9 ± 3 | 32.4 ± 2.2 | 28.6 ± 1.8 | 26.3 ± 1.6 | – | –
388.1 K | 45.3 ± 3.3 | 40.8 ± 2.6 | 36.8 ± 2.8 | 33.5 ± 2.4 | 27.7 ± 1.8 | 24.7 ± 1.5 | 22.9 ± 1.3 | 19.85 ± 0.99 | –
393.1 K | 37.4 ± 2.9 | 34.2 ± 2.5 | 30.9 ± 2.2 | 28.3 ± 2 | 23.9 ± 1.5 | 21.5 ± 1.3 | 20 ± 1.1 | 17.61 ± 0.92 | –
398.1 K | 31.1 ± 2.3 | 28.9 ± 2 | 26.2 ± 1.8 | 24.2 ± 1.6 | 20.7 ± 1.3 | 18.8 ± 1.1 | 17.59 ± 0.97 | 15.64 ± 0.8 | 14.32 ± 0.66
403.1 K | 26.2 ± 1.9 | 24.7 ± 1.6 | 22.3 ± 1.5 | 20.8 ± 1.3 | 18 ± 1 | 16.46 ± 0.92 | 15.52 ± 0.83 | 13.94 ± 0.7 | 12.86 ± 0.61
408.1 K | 22.2 ± 1.5 | 21.2 ± 1.3 | 19.2 ± 1.2 | 18 ± 1.1 | 15.75 ± 0.89 | 14.52 ± 0.78 | 13.76 ± 0.72 | 12.45 ± 0.61 | 11.57 ± 0.54
413.1 K | 19.1 ± 1.2 | 18.5 ± 1.1 | 16.65 ± 0.99 | 15.64 ± 0.91 | 13.88 ± 0.75 | 12.86 ± 0.67 | 12.25 ± 0.62 | 11.17 ± 0.53 | 10.44 ± 0.48
418.1 K | 16.53 ± 0.99 | 16.2 ± 0.89 | 14.56 ± 0.82 | 13.73 ± 0.76 | 12.29 ± 0.64 | 11.46 ± 0.57 | 10.97 ± 0.53 | 10.06 ± 0.47 | 9.44 ± 0.43
423.1 K | 14.47 ± 0.81 | 14.35 ± 0.74 | 12.83 ± 0.69 | 12.15 ± 0.64 | 10.96 ± 0.54 | 10.26 ± 0.5 | 9.85 ± 0.47 | 9.08 ± 0.41 | 8.56 ± 0.38
428.1 K | 12.78 ± 0.67 | 12.83 ± 0.62 | 11.41 ± 0.57 | 10.82 ± 0.54 | 9.83 ± 0.47 | 9.23 ± 0.43 | 8.89 ± 0.4 | 8.23 ± 0.36 | 7.77 ± 0.34
433.1 K | 11.41 ± 0.55 | – | 10.23 ± 0.48 | 9.72 ± 0.45 | 8.87 ± 0.4 | 8.35 ± 0.37 | 8.06 ± 0.35 | 7.49 ± 0.32 | 7.08 ± 0.3
438.1 K | 10.3 ± 0.46 | 10.55 ± 0.44 | 9.25 ± 0.41 | 8.8 ± 0.39 | 8.05 ± 0.35 | 7.59 ± 0.33 | 7.34 ± 0.31 | 6.83 ± 0.29 | 6.46 ± 0.27
443.1 K | 9.39 ± 0.41 | – | 8.44 ± 0.26 | 8.03 ± 0.34 | 7.36 ± 0.32 | 6.93 ± 0.29 | 6.71 ± 0.29 | 6.25 ± 0.27 | 5.91 ± 0.25

Nc1ccccc1 + CCCC[n+]1ccn(C)c1.O=S(=O)([O-])C(F)(F)F
Details | viscosity [mPa·s]
323.15 K, 100 kPa, x1 = 1 | 1.927 ± 0.085

CCCC[n+]1ccn(C)c1.F[B-](F)(F)F + NCCNCCN
101.3 kPa, x1 = 1
Details | viscosity [mPa·s]
298.15 K | 101.1 ± 4.2
303.15 K | 81.9 ± 3.4
308.15 K | 63.6 ± 2.6

O=C1CCCC1 + CCCC[n+]1ccn(C)c1.F[P-](F)(F)(F)(F)F
298.15 K, 101.3 kPa
Details | viscosity [mPa·s]
x1 = 0.0936 | 175 ± 17
x1 = 0.3093 | 66 ± 2.4
x1 = 0.4012 | 42.2 ± 1.3
x1 = 0.5514 | 19.23 ± 0.49
